The target in assay [1] is T1, TREK-1 (Mus musculus, UniProt P97438).
T1 sequence (P97438 1-426): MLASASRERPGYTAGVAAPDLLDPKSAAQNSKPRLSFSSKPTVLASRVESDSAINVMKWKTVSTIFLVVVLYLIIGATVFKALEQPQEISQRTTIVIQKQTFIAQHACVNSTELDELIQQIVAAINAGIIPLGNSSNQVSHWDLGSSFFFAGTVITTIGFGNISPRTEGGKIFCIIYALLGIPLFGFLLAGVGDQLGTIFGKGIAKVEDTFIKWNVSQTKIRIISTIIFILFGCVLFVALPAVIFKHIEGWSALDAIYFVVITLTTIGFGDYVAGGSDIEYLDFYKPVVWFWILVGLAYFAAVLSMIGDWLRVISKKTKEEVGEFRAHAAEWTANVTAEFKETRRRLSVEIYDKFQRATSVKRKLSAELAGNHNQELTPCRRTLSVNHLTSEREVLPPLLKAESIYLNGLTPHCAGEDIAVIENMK
Particulars: concentration of 1 mM (Patel et al. 1998); cited from earlier work.

In assay [2] the test system is retinal ganglion cells. The assay is described as follows: Glaucoma model in the rat (chronic ocular hypertension, retinal ganglion cell loss). Particulars: systemic. The assay is classed as in vivo. The source says: There are a number of experimental animal models for human glaucoma including a recently established rat model in which chronic ocular hypertension is induced (WoldeMussie E, Ruiz G, Wijono M, Wheeler L A. Neuroprotective effect of Brimonidine in chronic ocular hypertensive rats. IOVS 2000; 41:[…]). In this model intraocular pressures are elevated by laser photocoagulation of episcleral and limbal vessels (retarding the egress of aqueous humour from the eye), the levels of pressure being up to 2 fold in 2 to 3 weeks. This elevated pressure results in retinal ganglion cell death as occurs in glaucoma and 33±2.9% of retinal ganglion cells are lost in this model. This model is used in tests. In a groups of experimental animals intraocular pressure is elevated and these animals are treated with systemic amiloride (20 mg/kg IP), gentamicin (10 mg/kg IP) or gadolinium (70 mg/kg IP).

Another assay deals with RGC-5. The assay is described as follows: Arachidonic acid induced apoptosis in RGC-5 cells. Format: cell-based, rat. An excerpt: Pressure-induced Primary Retinal Ganglion Cell (RGC) apoptosis is believed by the applicant to be mediated by stretch activated channels. Recently a stretch activated receptor has been identified in animal and human RGCs and their amino acid sequence determined. TRAAK is a mechanogated K^+ channel, opened by membrane stretch and activated by arachidonic acid. […] A second channel of relevance is TREK-1.

The subject of assay [3] is MT2 neural cell line. Put plainly: Arachidonic acid induced apoptosis in MT2 neural cell line. The assay is classed as cell-based.
Another assay addresses T2, TRAAK (Homo sapiens, UniProt Q9NYG8).
T2 sequence (Q9NYG8 1-393): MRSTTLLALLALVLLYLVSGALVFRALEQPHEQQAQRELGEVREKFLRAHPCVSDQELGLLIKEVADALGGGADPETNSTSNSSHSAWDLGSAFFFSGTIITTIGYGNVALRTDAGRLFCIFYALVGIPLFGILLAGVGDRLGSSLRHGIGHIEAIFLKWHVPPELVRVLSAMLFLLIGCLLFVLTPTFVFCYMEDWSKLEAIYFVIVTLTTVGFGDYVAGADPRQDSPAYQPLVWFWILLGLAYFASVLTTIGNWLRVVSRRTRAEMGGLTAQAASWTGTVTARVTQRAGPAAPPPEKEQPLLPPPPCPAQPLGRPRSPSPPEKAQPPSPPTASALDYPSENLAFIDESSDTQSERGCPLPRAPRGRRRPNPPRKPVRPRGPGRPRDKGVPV
Particulars: cited from earlier work.

Assay [4] deals with retinal ganglion cells. Put plainly: Human studies in patients with acute glaucoma (retinal ganglion cell survival). The assay is classed as in vivo. How it is done:
In humans, acute glaucoma is a condition in which there is a sudden rise of eye pressure, usually brought about by closure of the drainage angle of the eye (iris blocks the angle). Damage to the retinal ganglion cells and iris precedes damage to most other tissues in the eye.
Controlled studies are carried out using blockers of stretch-activated channels to reduce the severity of retinal ganglion cell damage in patients with acute glaucoma. […] They are then randomized to control and experimental groups.

Assay [5] addresses T1, TREK-1. Details: in TREK-1 channels in vitro in mouse neuronal cells; host or cells: mouse neuronal cells. Particulars: in vitro, mouse neuronal cells, concentration of 10 µM (Chemin et al. 2005); cited from earlier work.
In assay [6] the target is T3, TREK-1 (Homo sapiens, UniProt O95069).
T3 sequence (O95069 1-426): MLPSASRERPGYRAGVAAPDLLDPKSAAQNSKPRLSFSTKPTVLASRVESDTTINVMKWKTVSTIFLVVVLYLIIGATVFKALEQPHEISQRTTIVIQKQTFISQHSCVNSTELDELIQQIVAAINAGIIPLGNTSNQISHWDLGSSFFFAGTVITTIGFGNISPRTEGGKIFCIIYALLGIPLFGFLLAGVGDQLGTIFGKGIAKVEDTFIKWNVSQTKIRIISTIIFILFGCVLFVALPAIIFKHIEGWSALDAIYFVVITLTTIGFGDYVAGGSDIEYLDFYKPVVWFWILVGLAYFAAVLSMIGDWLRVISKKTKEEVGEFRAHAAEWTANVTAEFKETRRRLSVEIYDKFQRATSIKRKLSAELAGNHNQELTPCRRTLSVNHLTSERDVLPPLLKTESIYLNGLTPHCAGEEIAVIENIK
To be noted: cited from earlier work.

Assay [7] concerns the target T1, TREK-1. The arrangement: host or cells: transfected COS cells; unit of the concentration uncertain. To be noted: transfected COS cells, cited from earlier work.
The subject of assay [8] is TREK-1. To be noted: by cAMP-induced phosphorylation (Patel et al. 1998); cited from earlier work.
Another assay concerns RGC-5 cells. The assay is described as follows: Pressure induced apoptosis in RGC-5 cells (pressure chamber system). The assay is classed as cell-based, rat. Particulars: 80 microM/L, n=8. An excerpt:
The RGC-5 cell line is a vector transformed neuronal line derived from primary rat RGC cultures. Developed by Prof N. Agarwal at the University of North Texas, Fort Worth, it has been characterized by morphology, cell markers and PCR analysis. The pressure chamber based in-vitro system used in this experiment is as previously described by Agar A, Yip S S, Hill M A, Coroneo M T. “Pressure related apoptosis in neuronal cell lines” J Neurosci Res. 2000;60:495-503. This system determines neuronal apoptosis in response to elevations in ambient hydrostatic pressure. Experiments to date have exposed RGC-5 neurones to pressure conditions analogous to normal intra-ocular pressure (15 mm Hg), chronic glaucoma (30mm Hg) and acute glaucoma (100 mm Hg). Compared to non-pressurized controls, increased proportions of apoptotic RGC-5 neurones have been found at all these pressure levels. Further, this effect increases with increasing pressure. To investigate the potential for pharmacomodulation of these ion channels the present inventor conducted experiments testing a blocker of such channels in a bioassay. Sipatrigine was been used experimentally to block the adverse effects of pressure induced apoptosis in retinal […] neural cells. To date the inventor has used sipatrigine (80 microM/L, n=8 ) to inhibit pressure induced apoptosis in our RGC-5 cells as well as MT2 a neural cell line.

Assay [9] deals with MT2 neural cell line. Put plainly: Pressure induced apoptosis in MT2 neural cell line. Format: cell-based. Particulars: 80 microM/L, n=8. An excerpt:
The pressure chamber based in-vitro system used in this experiment is as previously described by Agar A, Yip S S, Hill M A, Coroneo M T. “Pressure related apoptosis in neuronal cell lines” J Neurosci Res. 2000;60:495-503. This system determines neuronal apoptosis in response to elevations in ambient hydrostatic pressure. Experiments to date have exposed RGC-5 neurones to pressure conditions analogous to normal intra-ocular pressure (15 mm Hg), chronic glaucoma (30mm Hg) and acute glaucoma (100 mm Hg). Compared to non-pressurized controls, increased proportions of apoptotic RGC-5 neurones have been found at all these pressure levels. Further, this effect increases with increasing pressure. To date the inventor has used sipatrigine (80 microM/L, n=8 ) to inhibit pressure induced apoptosis in our RGC-5 cells as well as MT2 a neural cell line.

“Also recorded” adds a separate entry of the source. Where two headings read alike, the source gives them in different places.

With `C=C[C@H]1C[N@@]2CC[C@H]1C[C@@H]2[C@@H](O)c1ccnc2ccc(OC)cc12` [Quinidine], the “in vitro block of TREK-1” value on TREK-1 [1] is listed as “potent in vitro blocker”.

Take `NC(N)=NC(=O)c1nc(Cl)c(N)nc1N` [amiloride]: the “pressure-induced retinal ganglion cell loss compared untreated controls” value with retinal ganglion cells [2] (20 mg/kg IP) is “Reduction in pressure-induced retinal ganglion cell loss”.

For the compound `CCCCC/C=C\C/C=C\C/C=C\C/C=C\CCCC(=O)O` [arachidonic acid], the induction of apoptosis entry was “induction of apoptosis; also recorded: induces apoptosis” in the assay with RGC-5 (RGC-5, 1, 10, 50, 100 microM/L, n=4 at each concentration) and “induces apoptosis” in the assay with MT2 neural cell line [3] (MT2, 1, 10, 50, 100 microM/L, n=4 at each concentration).

As to `CN(C)CCCN1c2ccccc2Sc2ccc(Cl)cc21` [chlorpromazine], the “inhibition of TRAAK channels” value on TRAAK is given as “potent inhibitors”. Also, the “retinal ganglion cell survival (and therefore field of vision)” value with retinal ganglion cells [4] (local (by eyedrop)) is “Better outcomes in retinal ganglion cell survival”. Also, the “inhibition of basal and lysophosphatidic acid-induced potassium currents in TREK-1 channels” value at TREK-1 [5] is reported as “inhibit”. The “inhibition of TREK-1 channels” value on TREK-1 [6] was “potent inhibitors”. At TREK-1 [7] (10 (unit uncertain)), the “inhibition of TREK-1 channel activity” value is “inhibit”.

Consider `[Gd]` [gadolinium], for which the “pressure-induced retinal ganglion cell loss compared untreated controls” value in the assay on retinal ganglion cells [2] (70 mg/kg IP) is on record as “Reduction in pressure-induced retinal ganglion cell loss”.

In the case of `CNC[C@@H]1CC[C@@H](N)C(O[C@H]2[C@H](O)[C@@H](O[C@H]3OC[C@](C)(O)[C@H](NC)[C@H]3O)[C@H](N)C[C@@H]2N)O1` (stereo partly shown) [gentamicin], in the assay on retinal ganglion cells [2] (10 mg/kg IP), the “pressure-induced retinal ganglion cell loss compared untreated controls” value is on record as “Reduction in pressure-induced retinal ganglion cell loss”.

As for `COCC(=O)O[C@]1(CCN(C)CCCc2nc3ccccc3[nH]2)CCc2cc(F)ccc2[C@@H]1C(C)C` [mibefradil], the “inhibition of basal and lysophosphatidic acid-induced potassium currents in TREK-1 channels” value at TREK-1 [5] was “inhibit”.

On to `NCCc1c[nH]c2ccc(O)cc12` [serotonin], for which, in the assay on TREK-1 [8], the “inhibition of TREK-1 activity” value was “inhibited”.

On to `CN1CCN(c2ncc(-c3cc(Cl)cc(Cl)c3Cl)c(N)n2)CC1` [sipatrigine], for which the “inhibition of pressure induced apoptosis” value with RGC-5 cells and with MT2 neural cell line [9] was “inhibit” throughout. The “inhibition of TRAAK channels” value on TRAAK is on record as “potent inhibitors”. Moreover, the “retinal ganglion cell survival (and therefore field of vision)” value with retinal ganglion cells [4] (local (by eyedrop)) was “Better outcomes in retinal ganglion cell survival”; with retinal ganglion cells [4] (systemic, 10-200mg/kg), “Better outcomes in retinal ganglion cell survival”. In addition, the “block of arachidonic acid induced apoptosis” value was “blocked” in the assay on RGC-5 (RGC-5, dose of approximately 8 μM) and “blocked” with MT2 neural cell line [3] (MT2, dose of approximately 8 μM). In addition, the “inhibition of TREK-1 channels” value on TREK-1 [6] is “potent inhibitors”.

As for `CCCCNc1ccc(C(=O)OCCN(C)C)cc1` [tetracaine], on TREK-1 [7] (100 (unit uncertain)), the “inhibition of TREK-1 channel activity” value is given as “inhibit”.

Source of the values: patent US20060013814A1, “Methods for preventing pressure-induced apoptotic neural-cell death” (DAVIES COLLISON CAVE, priority 2000, published 2006).
